Measurements: patent US20150183781A1, “5-(1H-Pyrazol-4-yl)-1H-Pyrrolo[2,3-b]Pyridine Derivatives as Kinase Inhibitors” (AURIGENE DISCOVERY TECHNOLOGIES LIMITED, priority 2012, published 2015)
Counter-ions that a name gives are not always drawn.

Molecular target: T1, recombinant human ALK enzyme (Homo sapiens, UniProt Q9UM73)
T1 construct: purchased Carna Biosciences 08-518
Test: ALK WT cell free assay (TR-FRET)
Assay type: biochemical
Settings: 1 μM ATP; for IC50: 10 point dose response, read-out: IC50 value (in range); for inhibition at 0.1 µM: compound 100 nM, read-out: Percentage Inhibition 100 nM; for inhibition at 0.1 µM / inhibition at 1 µM: 30 min pre-incubation; for inhibition at 1 µM: compound 1 μM, read-out: Percentage Inhibition 1 μM
Experimental: The ALK WT cell free assay was set up to evaluate the effects of these compounds as inhibitors of ALK enzyme. The enzymatic assay was standardized using recombinant human ALK enzyme (Cat#08-518) from Carna Biosciences using Ultra Light Poly GT (Cat# TRF […]) from Perkin Elmer as a substrate. TR-FRET (Time resolved fluorescence resonance energy transfer) detection technology was used for the read out. […] The assay reaction time with the substrate was 30 minutes after which the antibody detection mix is added. The TR-FRET signal (Excitation at 340 nm, Emission at 615 nm and 665 nm) was read with 50 μs delay time on Victor^3 V fluorimeter. The data is calculated using the ratio of reading at 665 nm to 615 nm. […] Compounds were screened at 100 nM and 1 μM concentrations with pre-incubation of the enzymes with compound for 30 minutes.

T1 sequence (Q9UM73 1058-1620 limits assumed): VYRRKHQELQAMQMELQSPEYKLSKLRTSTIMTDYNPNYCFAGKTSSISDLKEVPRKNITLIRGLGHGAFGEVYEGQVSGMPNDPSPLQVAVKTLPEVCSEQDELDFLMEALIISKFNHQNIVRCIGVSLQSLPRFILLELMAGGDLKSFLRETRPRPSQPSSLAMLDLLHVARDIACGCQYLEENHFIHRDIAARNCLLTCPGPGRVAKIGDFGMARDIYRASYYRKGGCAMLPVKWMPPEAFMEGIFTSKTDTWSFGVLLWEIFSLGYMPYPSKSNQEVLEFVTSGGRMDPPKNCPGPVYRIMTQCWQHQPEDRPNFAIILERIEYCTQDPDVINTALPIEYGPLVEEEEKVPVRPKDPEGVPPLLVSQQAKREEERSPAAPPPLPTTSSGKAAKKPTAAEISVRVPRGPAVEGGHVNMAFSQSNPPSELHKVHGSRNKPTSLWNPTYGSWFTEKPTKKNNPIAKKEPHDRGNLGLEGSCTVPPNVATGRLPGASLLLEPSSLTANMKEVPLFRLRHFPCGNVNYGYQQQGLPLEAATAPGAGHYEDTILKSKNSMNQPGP

SMILES	IC50 [nM]	inhibition at 0.1 µM [%]	inhibition at 1 µM [%]
OCCn1cc(-c2cnc3[nH]cc(-c4cnn(Cc5cccc(F)c5)c4)c3c2)cn1 [Example-28, 2-(4-(3-(1-(3-fluorobenzyl)-1H-pyrazol-4-yl)-1H-pyrrolo[2,3-b]pyridin-5-yl)-1H-pyrazol-1-yl)ethanol]	< 50	96	98
Cn1cc(-c2cnc3[nH]cc(-c4cnn(Cc5cccc(C(F)(F)F)c5)c4)c3c2)cn1 [Example-11]	> 200		77
Cn1cc(-c2cnc3[nH]cc(-c4cnn(Cc5cc(F)cc(F)c5)c4)c3c2)cn1 [Example-14]	< 50		100
Cn1cc(-c2cnc3[nH]cc(-c4cnn(CCc5ccccc5)c4)c3c2)cn1 [Example-20A]	50 to 200	53	92
Cn1cc(-c2cnc3[nH]cc(-c4cnn(Cc5cccc(N)c5)c4)c3c2)cn1 [Example-21, 3-((4-(5-(1-methyl-1H-pyrazol-4-yl)-1H-pyrrolo[2,3-b]pyridin-3-yl)-1H-pyrazol-1-yl)methyl)aniline]			90
Cn1cc(-c2cnc3[nH]cc(-c4cnn(Cc5cc(F)ccc5F)c4)c3c2)cn1 [Example-10]	< 50		98
OCCCn1cc(-c2cnc3[nH]cc(-c4cnn(Cc5cccc(F)c5)c4)c3c2)cn1 [Example-30]	< 50	88	99
Cc1nn(Cc2cc(F)cc(F)c2)c(C)c1-c1c[nH]c2ncc(-c3cnn(C)c3)cc12 [Example-19]	< 50	80	96
Cn1cc(-c2cnc3[nH]cc(-c4cnn(Cc5ccccc5F)c4)c3c2)cn1 [Example-1, 3-(1-(2-fluorobenzyl)-1H-pyrazol-4-yl)-5-(1-methyl-1H-pyrazol-4-yl)-1H-pyrrolo[2,3-b]pyridine]	50 to 200		95
Cn1cc(-c2cnc3[nH]cc(-c4cnn(Cc5ccc(C(C)(C)C)cc5)c4)c3c2)cn1 [Example-9, 3-(1-(4-(tert-butyl)benzyl)-1H-pyrazol-4-yl)-5-(1-methyl-1H-pyrazol-4-yl)-1H-pyrrolo[2,3-b]pyridine]			21
Cn1cc(-c2cnc3[nH]cc(-c4cnn(Cc5cccc([N+](=O)[O-])c5)c4)c3c2)cn1 [Example-16, 5-(1-methyl-1H-pyrazol-4-yl)-3-(1-(3-nitrobenzyl)-1H-pyrazol-4-yl)-1H-pyrrolo[2,3-b]pyridine]	50 to 200	49	92
Cn1cc(-c2cnc3[nH]cc(-c4cnn(Cc5cccc(O)c5)c4)c3c2)cn1 [Example-20]	< 50	81	99
Cc1nn(Cc2cc(Cl)ccc2F)cc1-c1c[nH]c2ncc(-c3cnn(C)c3)cc12 [Example-7]	> 200	45	93
Cn1cc(-c2cnc3[nH]cc(-c4cnn(Cc5ccc(F)cc5)c4)c3c2)cn1 [Example-4]	50 to 200		93
COC(=O)c1cccc(Cn2cc(-c3c[nH]c4ncc(-c5cnn(C)c5)cc34)cn2)c1 [Example-6]			42
Cn1cc(-c2cnc3[nH]cc(-c4cnn(Cc5cccc(C#N)c5)c4)c3c2)cn1 [Example-5]	< 50		95
Cn1cc(-c2cnc3[nH]cc(-c4cnn(Cc5cccc(Cl)c5)c4)c3c2)cn1 [Example-13]	< 50		96
Cn1cc(-c2cnc3[nH]cc(-c4cnn(Cc5ccccc5)c4)c3c2)cn1 [Example-8]	50 to 200		98

Other lines, results leading:

IC50 [nM]	inhibition at 0.1 µM [%]	inhibition at 1 µM [%]	SMILES
< 50	79	96	Cc1nn(Cc2cccc(F)c2)cc1-c1c[nH]c2ncc(-c3cnn(C4CCNCC4)c3)cc12 [Example-26]
< 50	76	94	Cc1nn(Cc2cccc(F)c2)c(C)c1-c1c[nH]c2ncc(-c3cnn(C4CCNCC4)c3)cc12 [Example-24]
	6	6	Cn1cc(-c2cnc3[nH]cc(-c4cn(Cc5cccc(F)c5)nc4C(C)(C)C)c3c2)cn1 [Example-15]
50 to 200	59	95	c1ccc(CCn2cc(-c3c[nH]c4ncc(-c5cnn(C6CCNCC6)c5)cc34)cn2)cc1 [Example-31, 3-(1-phenethyl-1H-pyrazol-4-yl)-5-(1-(piperidin-4-yl)-1H-pyrazol-4-yl)-1H-pyrrolo[2,3-b]pyridine]
< 50	73	100	Cc1nn(Cc2cccc(F)c2)c(C)c1-c1c[nH]c2ncc(-c3cnn(CCO)c3)cc12 [Example-29]
< 50	97	100	Fc1cc(F)cc(Cn2cc(-c3c[nH]c4ncc(-c5cnn(C6CCNCC6)c5)cc34)cn2)c1 [Example-22, 3-(1-(3,5-difluorobenzyl)-1H-pyrazol-4-yl)-5-(1-(piperidin-4-yl)-1H-pyrazol-4yl)-1H-pyrrolo[2,3-b]pyridinehydrochloride]
< 50	79	98	Cc1c(-c2c[nH]c3ncc(-c4cnn(C5CCNCC5)c4)cc23)cnn1Cc1cccc(F)c1 [Example-27]
50 to 200	70	95	Cc1nn(Cc2cccc(O)c2)c(C)c1-c1c[nH]c2ncc(-c3cnn(C4CCNCC4)c3)cc12 [Example-25]
< 50	80	94	Fc1cccc(Cn2cc(-c3c[nH]c4ncc(-c5cnn(C6CCNCC6)c5)cc34)cn2)c1 [Example-23]
< 50	79	96	Cc1nn(Cc2cccc(F)c2)c(C)c1-c1c[nH]c2ncc(-c3cnn(C)c3)cc12 [Example-18]
< 50		100	Cn1cc(-c2cnc3[nH]cc(-c4cnn(Cc5cccc(F)c5)c4)c3c2)cn1 [Example-3]
< 50	90	99	C[C@H](O)CN1CCC(n2cc(-c3cnc4[nH]cc(-c5cnn(Cc6cccc(F)c6)c5)c4c3)cn2)CC1 [Example-32, (S)-1-(4-(4-(3-(1-(3-fluorobenzyl)-1H-pyrazol-4-yl)-1H-pyrrolo[2,3-b]pyridin-5-yl)-1H-pyrazol-1-yl)piperidin-1-yl)propan-2-ol]
50 to 200	62	89	Cn1cc(-c2cnc3[nH]cc(-c4cn(Cc5cccc(F)c5)nc4C(F)(F)F)c3c2)cn1 [Example-17]
